Data on 11 compounds can be found in the SangsterLogP compilation.

Usually logD stands for lipophilicity at a set pH, counting ionised and neutral species. Low readings indicate a more hydrophilic compound, high ones a more lipophilic compound. Broadly, the logP is the decadic logarithm of the partition coefficient of the neutral form, usually between octanol and water.

One data set can be described thus: method code SF, from DOI: 10.1002/tera.1420200312, PMID: 120615. As to conditions: pH 7.4.
As for `Cc1cc(O)c(C(C)C)cc1Cl`, the logD came out at 3.92. Regarding `Cc1ccccc1O`, the logD is 1.93. `CC/C(=C(/CC)c1ccc(O)cc1)c1ccc(O)cc1` showed a log distribution coefficient (logD) of 4.76.

Experiment in a further data set: not given
Conditions: not given
The compound `CCCCC(=O)O` gave a logP of 1.39.

For `C=CCCCCCCCCC(=O)O`, the log partition coefficient (logP) is 3.86.

The compound `CCCCCCCC(=O)O` yielded a logP of 3.05. For `Oc1ccc(Cl)cc1Cc1cc(Cl)ccc1O`, the lipophilicity (logP) was determined as 4.26. With `CCC(=O)O`, the logP was found to be 0.32. The compound `O=C(O)c1cccnc1` had a lipophilicity (logP) of -0.46. Regarding `O=C(O)c1cc(I)cc(I)c1O`, the lipophilicity (logP) came out at 4.2.

In turn, `O=C(Nc1ccccc1)c1ccccc1O` came in with a lipophilicity (logP) of 3.25.
